Laboratory results published in a compilation of properties of binary mixtures (doi:10.1021/acs.jpcb.5b11900).

Assay: xn = mol fraction of the nth substance listed
Conditions: 101 kPa

SMILES: CC[NH+](CC)CC.O=[N+]([O-])[O-] + CC[NH3+].O=[N+]([O-])[O-]
- electrical conductivity (313.15 K, x1 = 0.5003): 1.13 S/m
- viscosity (313.15 K, x1 = 0.5003): 47.1 mPa·s
- electrical conductivity (313.15 K, x1 = 0.5485): 1.12 S/m
- viscosity (313.15 K, x1 = 0.5485): 45.8 mPa·s
- electrical conductivity (318.15 K, x1 = 0.0499): 3.33 S/m
- viscosity (318.15 K, x1 = 0.0499): 21 mPa·s
- electrical conductivity (318.15 K, x1 = 0.0999): 2.95 S/m
- viscosity (318.15 K, x1 = 0.0999): 22.6 mPa·s
- electrical conductivity (318.15 K, x1 = 0.149): 2.66 S/m
- viscosity (318.15 K, x1 = 0.149): 23.7 mPa·s
- electrical conductivity (318.15 K, x1 = 0.1997): 2.41 S/m
- viscosity (318.15 K, x1 = 0.1997): 26 mPa·s
- electrical conductivity (318.15 K, x1 = 0.25): 2.07 S/m
- viscosity (318.15 K, x1 = 0.25): 28.2 mPa·s
- electrical conductivity (318.15 K, x1 = 0.2993): 1.86 S/m
- viscosity (318.15 K, x1 = 0.2993): 30.6 mPa·s
- electrical conductivity (318.15 K, x1 = 0.3475): 1.74 S/m
- viscosity (318.15 K, x1 = 0.3475): 32.3 mPa·s
- electrical conductivity (318.15 K, x1 = 0.3995): 1.58 S/m
- viscosity (318.15 K, x1 = 0.3995): 34.1 mPa·s
- electrical conductivity (318.15 K, x1 = 0.4472): 1.41 S/m
- viscosity (318.15 K, x1 = 0.4472): 36.9 mPa·s
- electrical conductivity (318.15 K, x1 = 0.5003): 1.3 S/m
- viscosity (318.15 K, x1 = 0.5003): 39.1 mPa·s
- electrical conductivity (318.15 K, x1 = 0.5485): 1.29 S/m
- viscosity (318.15 K, x1 = 0.5485): 37.9 mPa·s
- electrical conductivity (323.15 K, x1 = 0.0499): 3.73 S/m
- viscosity (323.15 K, x1 = 0.0499): 18.4 mPa·s
- electrical conductivity (323.15 K, x1 = 0.149): 2.99 S/m
- viscosity (323.15 K, x1 = 0.149): 20.6 mPa·s
- electrical conductivity (323.15 K, x1 = 0.1997): 2.71 S/m
- viscosity (323.15 K, x1 = 0.1997): 22.5 mPa·s
- electrical conductivity (323.15 K, x1 = 0.25): 2.34 S/m
- viscosity (323.15 K, x1 = 0.25): 24.2 mPa·s
- electrical conductivity (323.15 K, x1 = 0.2993): 2.11 S/m
- viscosity (323.15 K, x1 = 0.2993): 26.3 mPa·s
- electrical conductivity (323.15 K, x1 = 0.3475): 1.97 S/m
- viscosity (323.15 K, x1 = 0.3475): 27.6 mPa·s
- electrical conductivity (323.15 K, x1 = 0.4472): 1.61 S/m
- viscosity (323.15 K, x1 = 0.4472): 31.3 mPa·s
- electrical conductivity (323.15 K, x1 = 0.5485): 1.48 S/m
- viscosity (323.15 K, x1 = 0.5485): 32.1 mPa·s
- viscosity (328.15 K, x1 = 0.0499): 16.3 mPa·s
- viscosity (328.15 K, x1 = 0.0999): 17.3 mPa·s
- viscosity (328.15 K, x1 = 0.1997): 19.7 mPa·s
- viscosity (328.15 K, x1 = 0.25): 21 mPa·s
- viscosity (328.15 K, x1 = 0.2993): 22.8 mPa·s
- viscosity (328.15 K, x1 = 0.3475): 23.9 mPa·s
- viscosity (328.15 K, x1 = 0.4472): 26.9 mPa·s
- viscosity (333.15 K, x1 = 0.0499): 14.4 mPa·s
- viscosity (333.15 K, x1 = 0.0999): 15.3 mPa·s
- viscosity (333.15 K, x1 = 0.149): 16.1 mPa·s
- viscosity (333.15 K, x1 = 0.25): 18.4 mPa·s
- viscosity (333.15 K, x1 = 0.2993): 19.9 mPa·s
- viscosity (333.15 K, x1 = 0.3475): 21 mPa·s
- viscosity (333.15 K, x1 = 0.3995): 22 mPa·s
- viscosity (333.15 K, x1 = 0.4472): 23.5 mPa·s
- viscosity (338.15 K, x1 = 0.0499): 12.9 mPa·s
- viscosity (338.15 K, x1 = 0.0999): 13.7 mPa·s
- viscosity (338.15 K, x1 = 0.149): 14.2 mPa·s
- viscosity (338.15 K, x1 = 0.1997): 15.2 mPa·s
- viscosity (338.15 K, x1 = 0.25): 16.3 mPa·s
- viscosity (338.15 K, x1 = 0.3475): 18.2 mPa·s
- viscosity (338.15 K, x1 = 0.3995): 19 mPa·s
- viscosity (338.15 K, x1 = 0.5003): 21.2 mPa·s
- viscosity (338.15 K, x1 = 0.5485): 20.5 mPa·s
- viscosity (343.15 K, x1 = 0.0999): 12.3 mPa·s
- viscosity (343.15 K, x1 = 0.149): 12.7 mPa·s
- viscosity (343.15 K, x1 = 0.1997): 13.5 mPa·s
- viscosity (343.15 K, x1 = 0.25): 14.5 mPa·s
- viscosity (343.15 K, x1 = 0.3475): 16.1 mPa·s
- viscosity (343.15 K, x1 = 0.3995): 16.8 mPa·s
- viscosity (343.15 K, x1 = 0.4472): 17.8 mPa·s
- viscosity (343.15 K, x1 = 0.5003): 19.3 mPa·s
- viscosity (343.15 K, x1 = 0.5485): 17.9 mPa·s
- viscosity (348.15 K, x1 = 0.0499): 10.5 mPa·s
- viscosity (348.15 K, x1 = 0.149): 11.4 mPa·s
- viscosity (348.15 K, x1 = 0.1997): 12.1 mPa·s
- viscosity (348.15 K, x1 = 0.25): 13 mPa·s
- viscosity (348.15 K, x1 = 0.3475): 14.3 mPa·s
- viscosity (348.15 K, x1 = 0.3995): 14.9 mPa·s
- viscosity (353.15 K, x1 = 0.0999): 9.6 mPa·s
- viscosity (353.15 K, x1 = 0.149): 10.4 mPa·s
- viscosity (353.15 K, x1 = 0.1997): 11 mPa·s
- viscosity (353.15 K, x1 = 0.25): 11.7 mPa·s
- viscosity (353.15 K, x1 = 0.3475): 13 mPa·s
- viscosity (353.15 K, x1 = 0.3995): 13.5 mPa·s
- viscosity (353.15 K, x1 = 0.4472): 14.2 mPa·s
